Several values for one entry are separate records, joined by “and”; a condition that tells them apart may be missing. Identical values can stand only once. Like-named read-outs stand apart in the source and are kept apart here.
Assays:
[1] = biological target: T1, Drosophila OR10a (Drosophila melanogaster, UniProt Q9VYZ1); assay: Calcium ion fluorescence (GCaMP6) assay, OR10a stable HEK293 cell line; type: cell-based; conditions: for OR10a response (VUAA1-normalized) at 1 μM / OR10a response (VUAA1-normalized) at 10 μM / OR10a response (VUAA1-normalized) at 100 μM: OR10a cell line; for OR10a response (VUAA1-normalized) at 1 μM: VOC concentration 1 μM; for OR10a response (VUAA1-normalized) at 10 μM: VOC concentration 10 μM; for OR10a response (VUAA1-normalized) at 100 μM: VOC concentration 100 μM
T1 construct: expressed in transfected cells
T1 sequence (Q9VYZ1 1-406): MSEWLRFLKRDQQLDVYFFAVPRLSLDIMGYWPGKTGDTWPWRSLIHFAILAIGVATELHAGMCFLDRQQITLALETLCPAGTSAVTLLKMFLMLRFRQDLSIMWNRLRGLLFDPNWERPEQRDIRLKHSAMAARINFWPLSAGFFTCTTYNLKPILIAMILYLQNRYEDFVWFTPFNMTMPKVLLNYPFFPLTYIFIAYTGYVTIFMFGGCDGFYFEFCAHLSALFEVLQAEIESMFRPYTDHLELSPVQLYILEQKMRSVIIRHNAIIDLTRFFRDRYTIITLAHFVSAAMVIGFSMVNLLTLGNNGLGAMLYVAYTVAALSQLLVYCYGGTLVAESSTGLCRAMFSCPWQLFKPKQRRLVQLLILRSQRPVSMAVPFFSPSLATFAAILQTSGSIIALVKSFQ
T1 sequence (Q9VNB5 1-486 partner): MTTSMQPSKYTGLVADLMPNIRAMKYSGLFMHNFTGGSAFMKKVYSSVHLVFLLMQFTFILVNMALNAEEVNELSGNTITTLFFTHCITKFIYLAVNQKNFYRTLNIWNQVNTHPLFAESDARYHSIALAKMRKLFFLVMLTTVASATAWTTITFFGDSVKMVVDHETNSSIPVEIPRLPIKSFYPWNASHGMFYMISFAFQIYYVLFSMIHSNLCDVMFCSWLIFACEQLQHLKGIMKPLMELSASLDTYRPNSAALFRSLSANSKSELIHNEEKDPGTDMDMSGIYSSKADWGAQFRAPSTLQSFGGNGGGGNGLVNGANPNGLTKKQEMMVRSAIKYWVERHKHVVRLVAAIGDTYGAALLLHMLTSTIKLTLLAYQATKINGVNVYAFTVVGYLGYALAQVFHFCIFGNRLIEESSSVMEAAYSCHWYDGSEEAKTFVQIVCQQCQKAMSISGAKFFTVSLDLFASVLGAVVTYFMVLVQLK
In short: (§1)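 HEK293 lines stably expressing each Drosophila OR with GCaMP6, doxycycline-induced (1 μg/mL) 48 or 72 h. Fluorescence recorded 5 s baseline then 30 s after VOC injection at pH 7.3; ΔF=(FMAX−F0)/F0, normalized to 50 µM VUAA1 response per line, triplicate wells averaged; concentration series 0.01–100 μM.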

[2] = biological target: T2, Drosophila OR49b (Drosophila melanogaster, UniProt Q9V6H2); assay: cell-based; conditions: for activation at 1 µM / activation at 10 µM / activation at 100 µM: HEK293; for Average response: mean of biological replicates
T2 construct: expressed in transfected cells
T2 sequence (Q9V6H2 1-375): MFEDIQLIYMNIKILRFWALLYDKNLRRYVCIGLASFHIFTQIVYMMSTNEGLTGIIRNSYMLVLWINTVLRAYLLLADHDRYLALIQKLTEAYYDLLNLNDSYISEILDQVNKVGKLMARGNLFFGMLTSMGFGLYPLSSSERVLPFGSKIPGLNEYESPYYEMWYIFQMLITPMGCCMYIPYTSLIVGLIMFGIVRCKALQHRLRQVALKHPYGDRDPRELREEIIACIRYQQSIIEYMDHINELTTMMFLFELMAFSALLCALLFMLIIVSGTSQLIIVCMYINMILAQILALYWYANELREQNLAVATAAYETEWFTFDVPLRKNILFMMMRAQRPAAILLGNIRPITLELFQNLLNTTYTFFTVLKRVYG
T2 sequence (Q9VNB5 1-486 partner): T1 sequence (Q9VNB5 1-486 partner)
In short: as §1

[3] = HEK293, read-out: OR10a Average response (VUAA1-normalized), 1 μM VOC, 50 μM VUAA1 = 1, responses not exceeding 0.05 considered 0
[4] = HEK293, read-out: OR10a Average response (VUAA1-normalized), 10 μM VOC, 50 μM VUAA1 = 1, responses not exceeding 0.05 considered 0
[5] = HEK293, read-out: OR10a Average response (VUAA1-normalized), 100 μM VOC, 50 μM VUAA1 = 1, responses not exceeding 0.05 considered 0
[6] = ligand concentration 1 (unit not given), threshold 0.05, below shown as 0
[7] = ligand concentration 10 (unit not given), threshold 0.05, below shown as 0
[8] = ligand concentration 100 (unit not given), threshold 0.05, below shown as 0
[9] = OR49b cell line, odorant cc. 1 µM
[10] = OR49b cell line, odorant cc. 10 µM
[11] = OR49b cell line, odorant cc. 100 µM
[12] = 100 µM, OR10a clone G5, single plate 2019.12.05
[13] = HEK293, 1 μM VOC, 50 μM VUAA1 = 1, responses not exceeding 0.05 considered 0, read-out: OR10a Average response (VUAA1-normalized)
[14] = HEK293, 10 μM VOC, 50 μM VUAA1 = 1, responses not exceeding 0.05 considered 0, read-out: OR10a Average response (VUAA1-normalized)
[15] = HEK293, 100 μM VOC, 50 μM VUAA1 = 1, responses not exceeding 0.05 considered 0, read-out: OR10a Average response (VUAA1-normalized)
[16] = ligand concentration 10 (unit not given), 0.05 threshold, values below shown as 0
[17] = ligand concentration 100 (unit not given), 0.05 threshold, values below shown as 0
[18] = ligand concentration 1 (unit not given), 0.05 threshold, values below shown as 0
[19] = OR49b cell line, VOC concentration 1 μM
[20] = OR49b cell line, VOC concentration 10 μM
[21] = OR49b cell line, VOC concentration 100 μM

Compound | activation at 1 µM [1, 3] | activation at 10 µM [1, 4] | activation at 100 µM [1, 5] | DF norm AVERAGE OR10a [1, 6] | DF norm AVERAGE OR10a [1, 7] | DF norm AVERAGE OR10a [1, 8] | Average response [2, 9] | Average response [2, 10] | Average response [2, 11] | DF norm AVERAGE OR49b [2, 6] | DF norm AVERAGE OR49b [2, 7] | DF norm AVERAGE OR49b [2, 8] | activation at 1 µM [1, 13] | activation at 10 µM [1, 14] | activation at 100 µM [1, 15] | DF norm AVERAGE OR10a [1, 16] | DF norm AVERAGE OR10a [1, 17] | OR10a response (VUAA1-normalized) at 1 μM [1] | OR10a response (VUAA1-normalized) at 10 μM [1] | OR10a response (VUAA1-normalized) at 100 μM [1] | further results
C=C1CCC2CC1C2(C)C (stereo not drawn) [beta-pinene] | 2.77% | 4% | 9% | 0 | 0 | 0.0885 | 0.0658 | 0.05 | 0.00 | 0.06581 | 0.05055 | 0 |  |  |  |  |  |  |  |  | activation at 1 µM ([1]; HEK293, read-out: OR10a response (VUAA1-normalized response), VOC concentration 1 μM): 0%; activation at 10 µM ([1]; HEK293, read-out: OR10a response (VUAA1-normalized response), VOC concentration 10 μM): 0%; activation at 100 µM ([1]; HEK293, read-out: OR10a response (VUAA1-normalized response), VOC concentration 100 μM): 9%; activation at 1 µM ([2]; VOC concentration 1 μM, read-out: OR49b response (VUAA1-normalized response)): 6.58%; activation at 10 µM ([2]; VOC concentration 10 μM, read-out: OR49b response (VUAA1-normalized response)): 5%; activation at 100 µM ([2]; VOC concentration 100 μM, read-out: OR49b response (VUAA1-normalized response)): 0%
CC/C=C\CCOC(C)=O [z3-hexenyl acetate] |  |  |  |  |  |  | 0.0379 | 0.0171 | 0.04 |  |  |  | 14% | 0% | 0% | 0 | 0 |  |  |  | DF norm, all technical replicates [1, 12]: 0; DF norm, outlier technical replicates removed [1, 12]: 0; DF, outlier technical replicates removed [1, 12]: 0; DF, all technical replicates ([1]; 100 µM, OR10a clone G5, single plate 2019.12.05, xc+0.1%DMSO): 0; DF norm AVERAGE OR10a ([1]; ligand concentration 1 (unit not given), […]): 0.1361; DF norm AVERAGE OR49b [2, 18]: 0; DF norm AVERAGE OR49b [2, 16]: 0; DF norm AVERAGE OR49b [2, 17]: 0
OCCc1ccccc1 [phenethyl alcohol] |  |  |  | 0 | 0.05732 | 0 | 0.0257 | 0.00 | 0.09 | 0 | 0 | 0.09318 | 3% | 6% | 3% |  |  | 0.00 | 0.06 | 0.00 | OR49b response (VUAA1-normalized) at 1 μM [2, 19]: 0.00; OR49b response (VUAA1-normalized) at 10 μM [2, 20]: 0.00; OR49b response (VUAA1-normalized) at 100 μM [2, 21]: 0.09
Cc1ccccc1 [toluene] | 3% | 0% | 7% |  |  |  | 0.00 | 0.00 | 0.44 |  |  |  |  |  |  | 0 | 0.07043 | 0.00 | 0.00 | 0.07 | DF norm AVERAGE OR10a [1, 18]: 0; activation at 1 µM ([2]; 1 μM VOC, 50 μM VUAA1 = 1, read-out: OR49b Average response (VUAA1-normalized)): 0%; activation at 10 µM ([2]; 10 μM VOC, 50 μM VUAA1 = 1, read-out: OR49b Average response (VUAA1-normalized)): 0%; activation at 100 µM ([2]; 100 μM VOC, 50 μM VUAA1 = 1, read-out: OR49b Average response (VUAA1-normalized)): 44%; OR49b response (VUAA1-normalized) at 1 μM [2, 19]: 0.00; OR49b response (VUAA1-normalized) at 10 μM [2, 20]: 0.00; OR49b response (VUAA1-normalized) at 100 μM [2, 21]: 0.44; DF norm AVERAGE OR49b [2, 18]: 0; DF norm AVERAGE OR49b [2, 16]: 0; DF norm AVERAGE OR49b ([2]; ligand concentration 100 (unit not given), […]): 0.4351
C=Cc1ccccc1 [styrene] | 3% | 0% | 14% |  |  |  |  |  |  |  |  |  |  |  |  | 0 | 0.144 | 0.00 | 0.00 | 0.14 | DF norm AVERAGE OR10a [1, 18]: 0; EC50 ([2]; AVERAGE EC50, OR49b, printed with 95% confidence interval, matches the average LOG EC50): 21.1 µM; EC50 ([2]; EC50 (fitted parameter), OR49b, fit of each biological replicate): 16.6 µM and 17.3 µM; EC50 ([2]; EC50, AVERAGE, OR49b, arithmetic average of 5 replicate EC50): 24.9 µM; EC50 ([2]; LOG EC50 (fitted parameter), OR49b, fit of each biological replicate, log of EC50, unit inferred): 46.9 µM; EC50 ([2]; OR49b cell line, fitted Hill equation, Hill coefficient constrained to 1, maximal response max 1, read-out: EC50): 21.1 µM; EC50 ([2]; OR49b, average of 5 biological replicates, read-out: LOG EC50, AVERAGE (converted)): 21.1 µM; EC50 ([2]; OR49b, fit of each biological replicate, log of EC50, unit inferred, read-out: LOG EC50 (fitted parameter) (converted)): 34.6 µM and 16.6 µM and 17.3 µM and 8.95 µM; EC50 ([2]; OR49b, fit of each biological replicate, read-out: EC50 (fitted parameter)): 34.6 µM and 46.9 µM and 8.95 µM; EC50 ([2]; OR49b, fit of the averaged curve, read-out: EC50, FITTED AVERAGE CURVE): 24.4 µM
